Blank lines part the entries; values can stand above or below the compound they belong to.
Experiments:
[1] = Beverage swallowing test: duration of cooling in throat and chest and adverse taste ranking; format: in vivo, human; conditions: for Onset of cooling action in the chest (in words): in vivo; for Duration Cool: 20 mg in 50 mL (0.4 mg/mL); for Min. (cooling): 50 mL beverage; for Duration of effects (in words): compared with the shorter DIPA analogs
Text: DIPA compounds dissolved in water have an unpleasant, bitter, and metallic taste. The goal of the experiments was to find an adjunct that would make the DIPA beverage palatable. The anatomic sites for bitterness (adverse taste) are primarily on the dorsal surface of the posterior one-third of the tongue. The coolness and refreshment areas are on the hypopharynx and the upper one-third of the esophagus (FIG. 1). These are two different anatomic sites. Sensations of coolness from the oral cavity and oropharynx are not the primary targets. The esophagus is in the center of the thorax. When its lumen feels “cool,” this is like turning on the central air conditioner for the body. The goal of the beverage is to turn on this central air conditioning for at least 30 min and preferably longer without adverse tastes in the oral cavity. That is, the goal is to produce cool in the center of the chest but without bitter taste. A standard procedure was set. The cooling agent at various concentrations was made up to 50 mL with a liquid in a plastic cup (Flak Tek, Inc. South Carolina), beaker, whiskey glass, or bottle. For example, the final concentration of the coolant in the test solution may range from 0.1 to 0.5 mg/mL. The temperature of the liquid was measured and then swallowed. For example, 50 mL could be swallowed in five gulps or sipped. The duration of cooling in the throat and chest was recorded at various intervals until the cooling disappeared. The ranking of adverse taste was on a scale of 0 (no adverse taste), 1 (mild taste), 2 (moderate taste), or 3 (adverse taste). The value was for at least three trials per beverage.
Examples of test procedures and results. The usual method was to prepare a 2-mL vial containing a DIPA dissolved in water. The contents of the vial were added to beverages such as beer, soda drinks, fruit juice, coffee, tea, or water. A taste-modulating adjunct such as a sweetener can be in the 2-mL vial or present in the beverage. The drink is gulped at about 5 mL per swallow. The time and temperatures are noted. The onset of coolness in the center of the upper chest usually occurs within 3 min. For active compounds, this effect was pleasant and, depending on dose, could last for 10 minutes, an hour, or more. Gulping the liquid was important. When held in the mouth, the drink is cool and may have taste, but cooling in the center of the chest is reduced. Thus, sipping is not the correct method of drinking. Using these methods, a bottle of beer (e.g., ˜330 mL containing 33 mg of DIPA-1-9), if drank in a leisurely setting for one hour, can provide comfortable body cooling for 3 hr. Similarly, a smaller bottle of carbonated soda water (e.g., 200 mL), containing 15 mg of DIPA-1-6 produced immediate cooling relief for 30 min for individuals, for example, taking a break from playing tennis in the heat. For pharmaceutical uses, a tinted bottle with 20 mg of DIPA-1-9 in 50 mL of water with Splenda's Monk Fruit dissolved in it would be palatable and relieve the discomforts of indigestion.

[2] = as above; format: in vivo, human; conditions: for Duration of Cooling: 0.4 mg/mL in Monk fruit sweetened water (1 pack Splenda Monk Fruit per 100 mL), 30 mL, throat; for Dose sufficient for a robust, immediate cooling response: in 15 mL
[3] = Water solubility of 1-dialkylphosphorylalkanes; format: physicochemical
Text: The DIPA compounds are colorless liquids with a density less than water. These structures differ from those described by Rowsell and Spring U.S. Pat. No. 4,070,496 because '496 structures have their “head” (phosphine oxide group) covered by larger, more lipophilic groups. […] The applicant synthesized these analogs (which are achiral, by contrast to the structures of '496, which are >95% chiral). […] This increased water-solubility is striking (Table 3). Additional details on the bioactivity and pharmacology of these DIPA can be found in the paper by Yang et al., [(2017). A novel TRPM8 agonist relieves dry eye discomfort. BMC Ophthalmology, 17(1). https://doi.org/10.1186/s12886-017-0495-2], incorporated herein by reference.

[4] = target: TRPM8 receptor (Homo sapiens, UniProt Q7Z2W7); experiment: TRPM8 receptor agonist activity; format: cell-based
[5] = target: T1, TRPA1 (Homo sapiens, UniProt O75762); experiment: Activation of TRPA1-transfected cells; format: cell-based
T1 construct: expressed in transfected cells

[6] = target: T2, TRPV1 (Homo sapiens, UniProt Q8NER1); experiment: Activation of TRPV1-transfected cells; format: cell-based
T2 construct: expressed in transfected cells

[7] = DIPA cooling on the effects of a hotpot meal; format: in vivo, human; conditions: 0.5 mg/mL in water containing 1 packet of Splenda's Monk Fruit sweetener per 200 mL
Text: DIPA Cooling on the effects of a “hotpot” meal. A hotpot meal has been prevalent in central China (Sichuan province) for over a thousand years and has become very popular in many parts of Asia today. It is a family affair with a boiling pot of broth in the middle of the table, and everyone cooks food in the broth. Exceptionally spicy chili pepper is in the soup, and even in summer, the air-conditioning is off, so everybody sweats. The general idea is to get so hot that one becomes desensitized to the hot weather. […] Another method for relief from the hotpot is to incorporate it into a beer at DIPA-1-9 0.1 mg/ml, and commercialize it as “HotPot Beer.”

T2 sequence (Q8NER1 whole entry): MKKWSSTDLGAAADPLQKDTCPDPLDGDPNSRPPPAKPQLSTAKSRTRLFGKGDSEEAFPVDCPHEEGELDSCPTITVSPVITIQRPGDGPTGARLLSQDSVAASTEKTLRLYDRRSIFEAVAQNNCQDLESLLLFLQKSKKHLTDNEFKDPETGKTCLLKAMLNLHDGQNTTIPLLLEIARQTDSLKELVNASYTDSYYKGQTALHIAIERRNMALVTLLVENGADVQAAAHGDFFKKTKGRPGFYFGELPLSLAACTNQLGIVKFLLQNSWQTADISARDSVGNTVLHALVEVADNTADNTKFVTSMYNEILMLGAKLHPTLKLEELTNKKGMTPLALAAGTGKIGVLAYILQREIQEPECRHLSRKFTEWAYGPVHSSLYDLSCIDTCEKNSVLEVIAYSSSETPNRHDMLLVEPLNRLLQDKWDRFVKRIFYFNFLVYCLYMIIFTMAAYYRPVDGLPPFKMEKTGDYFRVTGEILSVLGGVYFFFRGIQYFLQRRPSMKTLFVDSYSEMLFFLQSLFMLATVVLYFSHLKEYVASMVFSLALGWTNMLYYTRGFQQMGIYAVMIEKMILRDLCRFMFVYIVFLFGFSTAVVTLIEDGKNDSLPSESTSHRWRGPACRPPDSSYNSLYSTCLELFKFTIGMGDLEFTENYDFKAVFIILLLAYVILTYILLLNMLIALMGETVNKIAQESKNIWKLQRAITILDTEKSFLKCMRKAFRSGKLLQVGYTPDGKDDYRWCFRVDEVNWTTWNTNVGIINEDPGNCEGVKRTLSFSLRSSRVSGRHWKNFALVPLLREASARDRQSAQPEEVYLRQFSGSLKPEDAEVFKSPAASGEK
Chain of TRPM8 receptor (Q7Z2W7 whole entry): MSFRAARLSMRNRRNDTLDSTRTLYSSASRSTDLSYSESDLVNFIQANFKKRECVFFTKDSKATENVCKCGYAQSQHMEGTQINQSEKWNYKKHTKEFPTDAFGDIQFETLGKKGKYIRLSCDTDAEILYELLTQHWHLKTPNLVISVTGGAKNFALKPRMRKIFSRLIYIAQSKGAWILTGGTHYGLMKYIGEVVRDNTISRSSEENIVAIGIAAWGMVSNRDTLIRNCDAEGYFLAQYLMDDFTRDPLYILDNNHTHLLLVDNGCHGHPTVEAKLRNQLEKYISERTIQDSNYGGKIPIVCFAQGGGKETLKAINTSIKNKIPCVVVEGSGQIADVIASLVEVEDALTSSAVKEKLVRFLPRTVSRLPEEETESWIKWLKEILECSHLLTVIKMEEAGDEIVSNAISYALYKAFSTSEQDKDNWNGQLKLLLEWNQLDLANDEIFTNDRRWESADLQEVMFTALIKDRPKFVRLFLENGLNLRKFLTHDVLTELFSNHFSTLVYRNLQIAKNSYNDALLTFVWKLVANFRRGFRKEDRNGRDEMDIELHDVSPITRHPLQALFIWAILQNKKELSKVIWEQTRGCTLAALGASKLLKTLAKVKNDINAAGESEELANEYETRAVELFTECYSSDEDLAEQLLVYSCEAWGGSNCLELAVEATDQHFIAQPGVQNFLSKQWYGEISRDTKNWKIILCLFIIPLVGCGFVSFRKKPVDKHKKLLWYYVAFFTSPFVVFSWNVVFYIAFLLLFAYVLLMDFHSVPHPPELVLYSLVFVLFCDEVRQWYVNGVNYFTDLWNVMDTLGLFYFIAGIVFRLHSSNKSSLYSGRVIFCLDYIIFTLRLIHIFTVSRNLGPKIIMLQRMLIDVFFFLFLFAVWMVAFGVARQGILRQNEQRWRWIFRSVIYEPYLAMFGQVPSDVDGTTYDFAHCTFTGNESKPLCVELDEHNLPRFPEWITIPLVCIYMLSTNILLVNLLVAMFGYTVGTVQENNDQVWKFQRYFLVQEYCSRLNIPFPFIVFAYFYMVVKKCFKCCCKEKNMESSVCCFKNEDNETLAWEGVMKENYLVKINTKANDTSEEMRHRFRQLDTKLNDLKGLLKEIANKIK
T1 sequence (O75762 whole entry): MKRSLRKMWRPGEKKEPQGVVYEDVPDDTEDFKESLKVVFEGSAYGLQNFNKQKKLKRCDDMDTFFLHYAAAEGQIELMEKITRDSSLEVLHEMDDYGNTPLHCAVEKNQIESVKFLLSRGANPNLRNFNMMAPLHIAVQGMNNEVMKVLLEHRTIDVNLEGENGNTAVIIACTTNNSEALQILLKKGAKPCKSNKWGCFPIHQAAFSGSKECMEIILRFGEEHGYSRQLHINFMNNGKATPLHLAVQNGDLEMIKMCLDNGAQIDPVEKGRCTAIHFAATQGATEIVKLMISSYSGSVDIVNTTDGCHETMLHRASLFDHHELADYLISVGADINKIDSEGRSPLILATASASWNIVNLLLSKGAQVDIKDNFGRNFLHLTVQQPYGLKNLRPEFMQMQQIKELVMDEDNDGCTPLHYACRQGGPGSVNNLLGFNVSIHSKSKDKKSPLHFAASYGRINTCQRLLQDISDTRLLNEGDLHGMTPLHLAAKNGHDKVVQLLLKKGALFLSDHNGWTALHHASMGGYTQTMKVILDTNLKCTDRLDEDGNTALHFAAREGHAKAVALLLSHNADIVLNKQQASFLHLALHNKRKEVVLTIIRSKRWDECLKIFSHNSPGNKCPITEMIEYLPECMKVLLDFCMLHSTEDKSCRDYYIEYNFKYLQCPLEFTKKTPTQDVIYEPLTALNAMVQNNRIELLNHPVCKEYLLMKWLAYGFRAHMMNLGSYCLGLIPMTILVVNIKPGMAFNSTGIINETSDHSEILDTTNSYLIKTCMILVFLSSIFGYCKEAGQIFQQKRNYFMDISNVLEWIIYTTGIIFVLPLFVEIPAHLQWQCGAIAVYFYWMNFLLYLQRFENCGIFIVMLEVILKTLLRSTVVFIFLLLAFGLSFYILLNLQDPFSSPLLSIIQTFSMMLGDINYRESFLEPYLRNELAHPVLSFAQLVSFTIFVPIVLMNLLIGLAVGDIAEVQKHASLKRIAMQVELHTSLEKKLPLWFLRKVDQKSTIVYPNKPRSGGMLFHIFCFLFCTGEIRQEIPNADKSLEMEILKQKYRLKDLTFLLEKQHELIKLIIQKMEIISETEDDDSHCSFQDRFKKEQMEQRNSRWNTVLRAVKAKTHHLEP

SMILES: CCCCCP(=O)(C(C)C)C(C)C [DIPA-1-5, 1-Di(isopropyl)-phosphinoyl-pentane]
- Onset of cooling action in the chest (in words) [1]: immediate
- Duration of Cooling [2]: 12 min
- Dose sufficient for a robust, immediate cooling response [2]: 10 mg

- Water solubility [3]: <3 mg/mL
- EC50 [4]: inactive
SMILES: CCCCCCCCCCP(=O)(C(C)C)C(C)C [DIPA-1-10]
- Duration of Cooling [2]: 0 min

SMILES: CCCCCCP(=O)(C(C)C)C(C)C [DIPA-1-6, 1-Di(isopropyl)-phosphinoyl-hexane]
- Duration of immediate cooling relief ([1]; 200 mL carbonated soda water containing 15 mg): 30 min
- Onset of cooling action in the chest (in words) [1]: immediate
- Duration of Cooling [2]: 20 min
- Dose sufficient for a robust, immediate cooling response [2]: 10 mg

- Activation of TRPA1-transfected cells [5]: does not activate
- Activation of TRPV1-transfected cells [6]: does not activate
SMILES: CCCCCCCCCP(=O)(C(C)C)C(C)C [DIPA-1-9, 1-Diisopropyl-phosphinoyl-nonane]
- Duration ([1]; 0.4 mg/L, apple juice (Martinelli, Mott's), 21 °C): 34 min
- Duration ([1]; 0.4 mg/L, grape juice (Welch Grape), 20 °C): 35 min
- Duration ([1]; 0.4 mg/L, guarana juice soda (Guarana Antarctica), 10 °C): 40 min
- Duration ([1]; 0.4 mg/L, orange juice (fresh-squeezed), 8 °C): 40 min
- Duration ([1]; 0.4 mg/L, sweetened soda (Coca-Cola), 7 °C): 25 min
- Duration ([1]; 0.4 mg/L, wine (Moscato d'Asti), 8 °C): 36 min
- Duration ([1]; 0.4 mg/mL, hot cappuccino drink (3 Coracoes, Brazil), 70 °C): 30 min
- Duration ([1]; 0.4 mg/mL, hot coffee + herbal sweetener (117 + Stevia extracts), 75 °C): 36 min
- Duration ([1]; 0.4 mg/mL, hot coffee cream/sugar (117, Nescafe), 65 °C): 35 min
- Duration ([1]; 0.4 mg/mL, hot coffee-no cream or sugar (117, Nescafe), 62 °C): 30 min
- Duration ([1]; 0.4 mg/mL, hot water + monk fruit (Splenda monk fruit), 50 °C): 42 min
- Duration ([1]; 0.4 mg/mL, hot water + monk fruit (Splenda monk fruit), 70 °C): 38 min
- Duration ([1]; 0.4 mg/mL, iced cold cappuccino (Starbuck's frappaccino), 8 °C): 25 min
- Duration ([1]; 0.4 mg/mL, red tea (Peach-Ceylon, no sweetener), 46 °C): 31 min
- Duration ([1]; 0.4 mg/mL, sweetened tea (Ito En + 10% sucrose), 10 °C): 38 min
- Duration ([1]; 0.4 mg/mL, sweetened tea (Ito En + Truvia or Monk's Fruit), 10 °C): 40 min
- Duration ([1]; 0.4 mg/mL, unsweetened green tea (Ito En), 10 °C): 35 min
- Duration Cool ([1]; carbonated water (Perrier, La Croix), 8 °C): 45 min
- Duration Cool ([1]; water (Crystal Geyser), 10 °C): 48 min
- Duration Cool ([1]; water (Crystal Geyser), 25 °C): 42 min
- Duration Cool ([1]; water (Crystal Geyser), 74 °C): 45 min
- Duration Cool ([1]; water + herbal sweetener (+Stevia leaf), 8 °C): 40 min
- Duration Cool ([1]; water + herbal sweetener (+Stevia leaf), 22 °C): 35 min
- Duration Cool ([1]; water + herbal sweetener (+Stevia leaf), 72 °C): 32 min
- Duration Cool ([1]; water + synthetic sweetener (Neotame at 0.2 mg/mL), 10 °C): 40 min
- Min. (cooling) ([1]; 0.2 mg/mL + Stevia, 20 °C): 12 min
- Min. (cooling) ([1]; 0.4 mg/mL + Stevia, 20 °C): 35 min
- Min. (cooling) ([1]; 0.4 mg/mL + Sucrose (10%), 20 °C): 42 min
- Min. (cooling) ([1]; 0.8 mg/mL + Stevia, 20 °C): 55 min
- Min. (cooling) ([1]; 0.8 mg/mL + Sucrose (10%), 20 °C): 39 min
- Min. (cooling) ([1]; 0.8 mg/mL + Sucrose (15%), 20 °C): 45 min
- Duration ([1]; Sake (Japanese rice wine), 10 °C): 32 min
- Duration ([1]; beer (Heineken), 7 °C): 44 min
- Duration of comfortable body cooling ([1]; bottle of beer ~330 mL containing 33 mg, drunk over one hour): 3 h
- Duration of effects (in words) [1]: more long-lasting
- Duration ([1]; ginger ale (Canada Dry), 11 °C): 25 min
- Duration ([1]; ginger beer, juice (Q beer, Suja), 9 °C): 40 min
- Effective dose ([1]; in a standard beer bottle): 33 mg
- Duration ([1]; non-alcoholic beer (Heineken 00), 7 °C): 40 min
- Duration ([1]; tonic water with quinine (Schweppes), 7 °C): 42 min
- Duration ([1]; wheat ale (Blue Moon), 9 °C): 35 min
- Duration of Cooling [2]: 48 min
- Onset of relief [7]: within several minutes
- Relief after a hotpot meal (in words) [7]: relieves the pain in the oral cavity and throat

SMILES: CCCCCP(=O)(C(C)CC)C(C)CC (centres unmarked) [di-sec-butyl- pentane]
- Water solubility [3]: 22 mg/mL

SMILES: CCCCCCCP(=O)(C(C)C)C(C)C [DIPA-1-7, 1-Di(isopropyl)-phosphinoyl-heptane]
- Onset of cooling action in the chest (in words) [1]: immediate
- Duration of Cooling [2]: 36 min

SMILES: CCCCCCCCP(=O)(C(C)C)C(C)C [DIPA-1-8, 1-Di(isopropyl)-phosphinoyl-octane]
- Duration of effects (in words) [1]: more long-lasting
- Effective dose ([1]; in a whiskey glass): 15 mg
- Duration of Cooling [2]: 43 min
